Experimental data reported in PubChem BioAssay AID2060330 (Molecular Pharmacology Branch, DTP, NCI, 2025).
“And” between values parts separate entries of the source, which are not always exact repeats. Equal entries are not always repeated.

System: LG0703-F948-PDC spheroids with HUVEC/MSC, viability
Experiment: Anticancer human tumor LG0703-F948-PDC patient-derived lung adenocarcinoma cell line growth inhibition [IpAb]
Settings: for viability, T/C: stronger effect = lower value
Text: Combinatorial screen of targeted agents with ipatasertib and abemaciclib in multi-cell type tumor spheroids
A high-throughput screen of multi-cell type tumor spheroids was designed to identify active combinations of targeted small molecules and ipatasertib or abemaciclib. Complex spheroids include a stromal component modeled by human endothelial cells (HUVEC) and fibroblasts modeled by human mesenchymal stem cells (MSCs). The concentration ranges selected for each drug and investigational agent were based upon clinically achievable concentrations if the clinical Cmax of the agent was known.
Compounds. The drugs and investigational agents: ipatasertib (NSC767898), abemaciclib(NSC768073), selumetinib (NSC741078), trametinib (758246), adavosertib (NSC754352), everolimus (NSC733504), sapanisertib (NSC764658), vemurafenib (NSC761431), venetoclax (NSC766270), copanlisib (NSC809693), apelisib (NSC765974), palbociblib (NSC758247), vemurafenib (NSC761431), dabrafenib (NSC764134), ravoxertinib (NSC781343), BMS-387032 (NSC767048), sotorasib (NSC818433), talazoparib (NSC767125) and afursertib (NSC778305), were obtained from the National Cancer Institute (NCI) Developmental Therapeutics Program Chemical Repository. The FDA-approved anticancer drug set is available from the NCI Developmental Therapeutics Program. […] The stock solutions were prepared in dimethyl sulfoxide (DMSO, Sigma-Aldrich, St. Louis, MO, cat. D2650) at 800-fold the tested concentration and stored at -70 degrees C prior to their use. All drugs and investigational agents were tested over a range starting from a high concentration at or near the clinical Cmax and decreasing in half-log increments. If the clinical Cmax for an agent had not been determined, the highest concentration tested was 10 microM.
NCI60 Cell Culture. NCI60 cell lines were obtained from the NCI Developmental Therapeutics Program Tumor Repository. For each lot of cells, the Repository performed Applied Biosystems AmpFLSTR Identifiler testing with PCR amplification to confirm consistency with the published Identifier STR profile for each cell line. Cells were kept in continuous culture for no more than 20 passages. The optimal seeding densities for each of the cell lines at each time point assessed were determined prior to performing the concentration response studies. Briefly, the NCI60 human tumor lines were grown as monolayers in RPMI 1640 medium supplemented with 10% FBS and 2 mmol/L L-glutamine.
An additional 9 lines were from the NCI60 cell line panel including MDA-MB-231 breast carcinoma, MDA-MB-468 breast carcinoma, MCF7 breast carcinoma, Hs578T breast carcinoma, MALME-3M melanoma, SK-MEL-2 melanoma, SK-OV-3 ovarian carcinoma, DU-145 prostate carcinoma, PC-3 prostate carcinoma, all cell lines along with major genetic alterations are listed on Table 2. Pooled donor human umbilical vein endothelial cells (HUVEC, Lonza, cat. CC-2519) and human mesenchymal stem cells (hMSC, Lonza, cat. PT-2501) were purchased from Lonza (Walkersville, MD).
PDMR cell lines were grown in complete medium (DC medium): Dulbecco's modified Eagle's medium (DMEM)/F12 supplemented with 5% fetal bovine serum (FBS), 2 mM L-glutamine, 100 U/mL penicillin and 100 µg/ml streptomycin, 0.4 µg/ml hydrocortisone, 10 ng/ml epidermal growth factor (EGF) recombinant human protein, 24 µg/mL adenine, and 0.1 mg/mL primocin. During culture from frozen stock vials, PDMR cells were cultured in the same medium containing 10 µM Y-27632 (see Table 3). The PDCs were cultured in complete DMEM/F12 media without 10 microM Y-27632 dihydrochloride for at least two passages prior to the screen. The pooled donor HUVEC and hMSC were cultured in endothelial cell growth medium 2 (PromoCell, Heidelberg, Germany, cat. C-22011) and mesenchymal stem cell growth medium 2 (PromoCell, cat. C-28009), respectively. For all experiments, HUVEC and hMSC were used at passages </=5.
[…]
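Also: spheroids exposed to compounds for seven days before readout.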
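For viability, T/C in this document: T/C percent relative to DMSO vehicle wells set as 100% viability.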

With Cc1nc(NC(=O)N2CCCC2C(N)=O)sc1-c1ccnc(C(C)(C)C(F)(F)F)c1 (stereo not given) the viability, T/C (compound 0.0316 µM) was 93.3% and 92%, the viability, T/C (compound 0.1 µM) was 85.5% and 87.4% and the viability, T/C (compound 0.316 µM) was 77.1% and 72.5%. The viability, T/C (compound 1 µM) was 53.9% and 63.8%, the viability, T/C (compound 3.16 µM) was 28% and 30.2% and the viability, T/C (compound 10 µM) was 3.02% and 2.66%. For the same molecule, the IC50 (curve of compound) was 1230 nM and 1480 nM.

With Cn1cnc2c(F)c(Nc3ccc(Br)cc3Cl)c(C(=O)NOCCO)cc21 the viability, T/C (compound 0.00949 µM) was 85.5% and 87.7%, the viability, T/C (compound 0.03 µM) was 64.7% and 68.2% and the viability, T/C (compound 0.0949 µM) was 53.1% and 54.3%. For the same molecule, the viability, T/C (compound 0.3 µM) was 50.3% and 50.7%, the viability, T/C (compound 0.949 µM) was 37.5% and 43.6% and the viability, T/C (compound 3 µM) was 35.4% and 42.1%. For the same molecule, the IC50 (curve of compound) was 166 nM and 234 nM.

With Cn1ncc(Cl)c1-c1cc(C(=O)NC(CN)Cc2cccc(F)c2)sc1Cl (stereo not given) the viability, T/C (compound 0.0316 µM) was 85.7% and 79%, the viability, T/C (compound 0.1 µM) was 71.9% and 81.5% and the viability, T/C (compound 0.316 µM) was 60.7% and 58.4%. The viability, T/C (compound 1 µM) was 48% and 62.5%, the viability, T/C (compound 3.16 µM) was 17.1% and 21.7% and the viability, T/C (compound 10 µM) was 0.19%. The IC50 (curve of compound) was 650 nM and 1170 nM.

Cn1nccc1Nc1nccc(-c2ccn(C(CO)c3ccc(Cl)c(F)c3)c(=O)c2)n1 (stereo not given) was tested, and the viability, T/C (compound 0.0316 µM) was 93.2% and 90.2%, the viability, T/C (compound 0.1 µM) was 90.3% and 80.3% and the viability, T/C (compound 0.316 µM) was 71.5% and 79%. The viability, T/C (compound 1 µM) was 77.8% and 60.3%, the viability, T/C (compound 3.16 µM) was 85.2% and 81% and the viability, T/C (compound 10 µM) was 52.8% and 67.5%. It also gave an IC50 (curve of compound) of over 10000 nM.

Cn1ncnc1[C@H]1c2n[nH]c(=O)c3cc(F)cc(c23)N[C@@H]1c1ccc(F)cc1 was tested, and the viability, T/C (compound 0.000316 µM) was 108% and 102%, the viability, T/C (compound 0.001 µM) was 100% and 95.7% and the viability, T/C (compound 0.00316 µM) was 96.7% and 99%. The viability, T/C (compound 0.01 µM) was 102% and 101%, the viability, T/C (compound 0.0316 µM) was 87.6% and 92.6% and the viability, T/C (compound 0.1 µM) was 83.5% and 84.1%. For the same molecule, the IC50 (curve of compound) was over 100 nM.

For Cn1cnc2c(F)c(Nc3ccc(Br)cc3Cl)c(C(=O)NOCCO)cc21 + CC(C)NCC(C(=O)N1CCN(c2ncnc3c2C(C)CC3O)CC1)c1ccc(Cl)cc1, the IC50 (curve of first compound, second compound 0.1 µM) was 12.4 nM, the IC50 (curve of first compound, second compound 0.316 µM) was under 9.49 nM and the IC50 (curve of first compound, second compound 1 µM) was under 9.49 nM. The IC50 (curve of first compound, second compound 3.16 µM) was under 9.49 nM, the IC50 (curve of first compound, second compound 10 µM) was under 9.49 nM and the viability, T/C (second compound 0.1 µM, first compound 0.00949 µM) was 55%. It also gave a viability, T/C (second compound 0.1 µM, first compound 0.03 µM) of 35.1%, a viability, T/C (second compound 0.1 µM, first compound 0.0949 µM) of 27.4% and a viability, T/C (second compound 0.1 µM, first compound 0.3 µM) of 20.1%. The viability, T/C (second compound 0.1 µM, first compound 0.949 µM) was 18.3%, the viability, T/C (second compound 0.1 µM, first compound 3 µM) was 14% and the viability, T/C (second compound 0.316 µM, first compound 0.00949 µM) was 36.3%. The viability, T/C (second compound 0.316 µM, first compound 0.03 µM) was 19.5%, the viability, T/C (second compound 0.316 µM, first compound 0.0949 µM) was 14.1% and the viability, T/C (second compound 0.316 µM, first compound 0.3 µM) was 7.81%. For the same molecule, the viability, T/C (second compound 0.316 µM, first compound 0.949 µM) was 7.98%, the viability, T/C (second compound 0.316 µM, first compound 3 µM) was 3.28% and the viability, T/C (second compound 1 µM, first compound 0.00949 µM) was 21.6%. It also gave a viability, T/C (second compound 1 µM, first compound 0.03 µM) of 12.9%, a viability, T/C (second compound 1 µM, first compound 0.0949 µM) of 5.36% and a viability, T/C (second compound 1 µM, first compound 0.3 µM) of 3.84%. It also gave a viability, T/C (second compound 1 µM, first compound 0.949 µM) of 2.91%, a viability, T/C (second compound 1 µM, first compound 3 µM) of 1.32% and a viability, T/C (second compound 3.16 µM, first compound 0.00949 µM) of 13.7%. For the same molecule, the viability, T/C (second compound 3.16 µM, first compound 0.03 µM) was 6.24%, the viability, T/C (second compound 3.16 µM, first compound 0.0949 µM) was 3.66% and the viability, T/C (second compound 3.16 µM, first compound 0.3 µM) was 3.22%. The viability, T/C (second compound 3.16 µM, first compound 0.949 µM) was 2.57%, the viability, T/C (second compound 3.16 µM, first compound 3 µM) was 3.42% and the viability, T/C (second compound 10 µM, first compound 0.00949 µM) was 7.41%. For the same molecule, the viability, T/C (second compound 10 µM, first compound 0.03 µM) was 4.11%, the viability, T/C (second compound 10 µM, first compound 0.0949 µM) was 1.36% and the viability, T/C (second compound 10 µM, first compound 0.3 µM) was 2.06%. The viability, T/C (second compound 10 µM, first compound 0.949 µM) was 1% and the viability, T/C (second compound 10 µM, first compound 3 µM) was 0.28%.
